Measured values as given in patent US20220007644A1, “COMPOSITIONS COMPRISING PYRIDINE CARBOXYLATE HERBICIDES WITH PHOTOSYSTEM II AND OPTIONAL HPPD INHIBITOR HERBICIDES” (Corteva Agriscience LLC, priority 2018, published 2022).

Key:
Type in all cases: in vivo
[1] = tested on: BRSNN, Brassica napus (spring rape); assay: Greenhouse postemergence herbicidal effect (visual injury, 20-22 d)
Excerpt: (§1) Greenhouse Trial Methodology—Evaluation of Postemergence Herbicidal Effect
(§2) Seeds of the desired test plant species were planted in a 90:10% v/v (volume/volume) mixture of PRO-MIX® BX (Premier Tech Horticulture, Quakertown, Pa., USA) and PROFILE®GREENS GRADE™ (Profile Products LLC, Buffalo Grove, Ill., USA) planting mixture, which typically has a pH of 5.2 to 6.2 and an organic matter content of at least 50 percent, in plastic pots with a surface area of 103.2 square centimeters (cm^2). In some aspects, to help ensure good germination and healthy plants, a fungicide treatment and/or other chemical or physical treatment was applied. The plants were grown for 7-36 days (d) in a greenhouse with an approximate 14-hour (h) photoperiod which was maintained at about 23° C. during the day and 22° C. during the night. Nutrients and water were added on a regular basis and supplemental lighting was provided with overhead metal halide 1000-Watt lamps as necessary. The plants were employed for testing when they reached the second or third true leaf stage.
(§3) Emulsifiable concentrates of each of each pyridine carboxylate herbicide (Compound A or Compound B) were prepared at 100 grams acid equivalent per liter (g ae/L). The emulsifiable concentrates also included a safener, cloquintocet-mexyl, at 120 grams active ingredient per liter (g ai/L), unless otherwise noted below. An aliquot of each emulsifiable concentrate was placed in a 25 mL glass vial and diluted with an aqueous mixture of 1.25% (v/v) ACTIROB® B esterified rapeseed oil (Bayer Crop Science, Research Triangle Park, N.C., USA) or MSO® Concentrate with LECI-TECH® methylated soybean oil (Loveland Products, Loveland, Colo., USA) to obtain concentrated stock solutions at the highest application rate for each herbicide, based upon a 12 milliliter (mL) application volume at a rate of 187 liters per hectare (L/ha). The concentrated stock solutions were further diluted with an aqueous mixture of 1.25% v/v ACTIROB® B or MSO® Concentrate with LECI-TECH® to obtain stock solutions at reduced application rates for each herbicide. Spray solutions of the herbicide combinations (Compound A or Compound B plus PS-II herbicide and optional HPPD herbicide) were prepared by adding weighed amounts or aliquots of the PS-II herbicide and optional HPPD herbicide to the stock solutions of Compound A or Compound B to form 12-mL spray solutions in two- or three-way combinations.
(§4) The spray solutions were applied to the plant material with an overhead Mandel track sprayer equipped with 8002E nozzles calibrated to deliver 187 L/ha over an application area of 0.503 square meters (m^2) at a spray height of 18 inches ([…] centimeters (cm)) above the average plant canopy. Control plants were sprayed in the same manner with the solvent blank. All pyridine carboxylate herbicide (component a) application rates are given as “g ae/ha” and all PS II inhibitor herbicide (component b) and HPPD inhibitor herbicide (component c) application rates are given as “g ai/ha.”
(§5) The treated plants and control plants were placed in a greenhouse as described above and watered by sub-irrigation to prevent wash-off of the test compounds. After 20-22 d, the condition of the test plants as compared with that of the control plants was determined visually and scored on a scale of 0 to 100 percent where 0 corresponds to no injury and 100 corresponds to complete kill.

[2] = tested on: CHEAL, Chenopodium album L. (common lambsquarters); assay: as above
Excerpt: as §1, §2, §3, §4, §5

[3] = tested on: KCHSC, Kochia scoparia (kochia); assay: as above
Excerpt: as §1, §2, §3, §4, §5

[4] = tested on: POLCO, Polygonum convolvulus (wild buckwheat); assay: as above; details: Fallopia convolvulus, post-emergence, read-out: visual injury Obs
Excerpt: as §1, §2, §3, §4, §5

[5] = tested on: SASKR, Salsola kali (Russian thistle); assay: as above; details: 125 g ai/ha alone
Excerpt: as §1, §2, §3, §4, §5

[6] = tested on: SINAR, Sinapis arvensis (wild mustard); assay: as above
Excerpt: as §1, §2, §3, §4, §5

[7] = tested on: HORVS, Hordeum vulgare (spring barley); assay: Greenhouse postemergence phytotoxicity on crop (visual injury, 20-22 d)
Excerpt: as §1, §2, §3, §4, §5

[8] = tested on: TRZAS, Triticum aestivum (spring wheat); assay: as above
Excerpt: as §1, §2, §3, §4, §5

[9] = tested on: ALOMY, Alopecurus myosuroides (blackgrass); assay: Greenhouse postemergence herbicidal effect (visual injury, 20-22 d); details: 450 g ai/ha alone
Excerpt: as §1, §2, §3, §4, §5

[10] = tested on: AVEFA, Avena fatua (wild oat); assay: as above; details: 450 g ai/ha alone
Excerpt: as §1, §2, §3, §4, §5

[11] = tested on: VIOTR, Viola tricolor (wild pansy); assay: as above; details: 450 g ai/ha alone
Excerpt: as §1, §2, §3, §4, §5

[12] = tested on: ABUTH, Abutilon theophrasti (velvetleaf); assay: as above; details: 5 g ai/ha alone
Excerpt: as §1, §2, §3, §4, §5

[13] = tested on: CIRAR, Cirsium arvense (Canada thistle); assay: as above
Excerpt: as §1, §2, §3, §4, §5

[14] = tested on: GLXMA, Glycine max (soybean); assay: as above; details: 5 g ai/ha alone
Excerpt: as §1, §2, §3, §4, §5

[15] = tested on: IPOHE, Ipomoea hederacea (ivyleaf morningglory); assay: as above; details: 5 g ai/ha alone
Excerpt: as §1, §2, §3, §4, §5

[16] = tested on: SORVU, Sorghum vulgare (grain sorghum); assay: as above; details: 5 g ai/ha alone
Excerpt: as §1, §2, §3, §4, §5

[17] = tested on: AMARE, Amaranthus retroflexus (pigweed); assay: as above; details: 280 g ai/ha alone
Excerpt: as §1, §2, §3, §4, §5

[18] = tested on: BRSNW, Brassica napus (winter rape); assay: as above; details: 280 g ai/ha alone
Excerpt: as §1, §2, §3, §4, §5

[19] = tested on: MATCH, Matricaria chamomilla (wild chamomile); assay: as above; details: 280 g ai/ha alone
Excerpt: as §1, §2, §3, §4, §5

CCCCCCCCSC(=O)Oc1cc(Cl)nnc1-c1ccccc1 [Pyridate, O-6-chloro-3-phenylpyridazin-4-yl S-octyl thiocarbonate]
visual injury Obs ([1]; 125 g ai/ha alone): 15% | visual injury Obs ([2]; 125 g ai/ha alone): 0% | visual injury Obs ([3]; 125 g ai/ha alone): 0% | pest or weed control at 125 g/ha ([4]; 125 g ai/ha alone): 0% | visual injury Obs [5]: 0% | visual injury Obs ([6]; 125 g ai/ha alone): 0% | visual injury Obs ([7]; 125 g ai/ha alone): 5% | visual injury Obs ([8]; 125 g ai/ha alone): 0%

CCNc1nc(Cl)nc(NC(C)C)n1 [Atrazine, 6-chloro-N^2-ethyl-N^4-isopropyl-1,3,5-triazine-2,4-diamine, reference compound]
visual injury Obs [9]: 25% | visual injury Obs [10]: 13% | visual injury Obs ([1]; 450 g ai/ha alone): 28% | visual injury Obs [11]: 20%

CC(C)N1C(=O)c2ccccc2NS1(=O)=O [Bentazone, 3-isopropyl-1H-2,1,3-benzothiadiazin-4(3H)-one 2,2-dioxide]
visual injury Obs ([1]; 51.5 g ai/ha alone): 30% | pest or weed control at 51.5 g/ha ([4]; 51.5 g ai/ha alone): 20% | visual injury Obs ([7]; 51.5 g ai/ha alone): 0% | visual injury Obs ([8]; 51.5 g ai/ha alone): 0%

CCC(=O)Nc1ccc(Cl)c(Cl)c1 [Propanil, 3′,4′-dichloropropionanilide, reference compound]
visual injury Obs [12]: 10% | visual injury Obs ([13]; 5 g ai/ha alone): 28% | visual injury Obs [14]: 23% | visual injury Obs [15]: 38% | pest or weed control at 5 g/ha ([4]; 5 g ai/ha alone): 20% | visual injury Obs [16]: 15%

CNC(=O)N(C)c1nnc(C(C)(C)C)s1 [Tebuthiuron, 1-(5-tert-butyl-1,3,4-thiadiazol-2-yl)-1,3-dimethylurea, reference compound]
visual injury Obs [17]: 88% | visual injury Obs [18]: 45% | visual injury Obs ([2]; 280 g ai/ha alone): 98% | visual injury Obs ([13]; 280 g ai/ha alone): 40% | visual injury Obs ([3]; 280 g ai/ha alone): 23% | visual injury Obs [19]: 25% | pest or weed control at 280 g/ha [4]: 40% | visual injury Obs ([6]; 280 g ai/ha alone): 35% | visual injury Obs ([7]; 280 g ai/ha alone): 28% | visual injury Obs ([8]; 280 g ai/ha alone): 0%
